pEC50: −log10 of the molar value.
Tests used:
human PPARdelta = target: T1, human PPARdelta (Homo sapiens, UniProt Q03181); assay: Cellular PPARdelta assay (human GAL4 luciferase reporter, stably transfected HEK cell line); type: cell-based
T1 construct: amino acids S139-Y441; expressed in transfected cells; plasmid pcDNA3
T1 sequence (Q03181 139-441): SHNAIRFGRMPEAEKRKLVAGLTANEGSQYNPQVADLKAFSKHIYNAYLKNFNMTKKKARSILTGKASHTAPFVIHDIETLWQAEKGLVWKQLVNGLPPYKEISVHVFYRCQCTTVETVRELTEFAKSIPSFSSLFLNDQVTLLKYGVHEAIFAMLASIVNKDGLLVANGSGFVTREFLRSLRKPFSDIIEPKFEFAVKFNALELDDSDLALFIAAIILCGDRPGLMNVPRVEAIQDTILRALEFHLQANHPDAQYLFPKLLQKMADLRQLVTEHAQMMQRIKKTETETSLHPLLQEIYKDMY
Experimental: Determination of EC50 Values of PPAR Agonists in the Cellular PPARdelta Assay
(§1) The potency of substances which bind to human PPARdelta and activate it in an agonistic manner is analyzed using a stably transfected HEK cell line (HEK=human embryo kidney) which is referred to here as PPARdelta reporter cell line. In analogy to the assay described for PPARalpha, the PPARdelta reporter cell line also contains two genetic elements, a luciferase reporter element (pdeltaM-GAL4-Luc-Zeo) and a PPARdelta fusion protein (GR-GAL4-humanPPARdelta-LBD) which mediates expression of the luciferase reporter element depending on a PPARdelta ligand. The stably and constitutively expressed fusion protein GR-GAL4-humanPPARdelta-LBD binds in the cell nucleus of the PPARdelta reporter cell line via the GAL4 protein portion to the GAL4 DNA binding motifs 5′-upstream of the luciferase reporter element which is stably integrated in the genome of the cell line. There is only little expression of the luciferase reporter gene in the absence of a PPARdelta ligand if fatty acid-depleted fetal calf serum (cs-FCS) is used in the assay. PPARdelta ligands bind and activate the PPARdelta fusion protein and thereby stimulate expression of the luciferase reporter gene. The luciferase which is formed can be detected by means of chemiluminescence via an appropriate substrate.
Construction of the PPARdelta Reporter Cell Line
The production of the stable PPARdelta reporter cell line is based on a stable HEK-cell clone which was stably transfected with a luciferase reporter element. This step was already described above in the section “construction of the PPARalpha reporter cell line”. In a second step, the PPARdelta fusion protein (GR-GAL4-humanPPARdelta-LBD was stably introduced into this cell clone. For this purpose, the cDNA coding for the N-terminal 76 amino acids of the glucocorticoid receptor (Accession #P04150) was linked to the cDNA section coding for amino acids 1-147 of the yeast transcription factor GAL4 (Accession #P04386). The cDNA of the ligand-binding domain of the human PPARdelta receptor (amino acids S139-Y441; Accession #L07592) was cloned in at the 3′-end of this GR-GAL4 construct. The fusion construct prepared in this way (GR-GAL4-humanPPARdelta-LBD) was recloned into the plasmid pcDNA3 (Invitrogen) in order to enable constitutive expression by the cytomegalovirus promoter. This plasmid was linearized with a restriction endonuclease and stably transfected into the previously described cell clone containing the luciferase reporter element. The resulting PPARdelta reporter cell line which contains a luciferase reporter element and constitutively expresses the PPARdelta fusion protein (GR-GAL4-human PPARdelta-LBD) was isolated by selection with zeocin (0.5 mg/ml) and G418 (0.5 mg/ml).
Assay Procedure and Evaluation
The activity of PPARdelta agonists is determined in a 3-day assay in exact analogy to the procedure already described for the PPARalpha reporter cell line except that the PPARdelta reporter cell line and a specific PPARdelta agonist was used as a standard to control test efficacy.

human PPARalpha = target: T2, human PPARalpha (Homo sapiens, UniProt Q07869); assay: Cellular PPARalpha assay (human GAL4 luciferase reporter, stably transfected HEK cell line); type: cell-based
T2 construct: amino acids S167-Y468; expressed in transfected cells; plasmid pcDNA3
T2 sequence (Q07869 167-468): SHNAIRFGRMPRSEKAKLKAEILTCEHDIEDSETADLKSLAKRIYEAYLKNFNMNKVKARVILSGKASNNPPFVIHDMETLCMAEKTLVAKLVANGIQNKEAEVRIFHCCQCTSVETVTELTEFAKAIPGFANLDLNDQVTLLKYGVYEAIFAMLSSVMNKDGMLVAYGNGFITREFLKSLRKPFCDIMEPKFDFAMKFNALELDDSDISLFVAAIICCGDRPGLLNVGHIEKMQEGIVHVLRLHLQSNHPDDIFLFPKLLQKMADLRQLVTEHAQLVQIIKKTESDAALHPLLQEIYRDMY
Experimental: Determination of EC50 Values of PPAR Agonists in the Cellular PPARalpha Assay
as §1, with “PPARalpha” for “PPARdelta”, “It” for “In analogy to the assay described for PPARalpha, the PPARdelta reporter cell line also”, “(GR-GAL4-humanPPARalpha-LBD)” for “(GR-GAL4-humanPPARdelta-LBD)”, “GR-GAL4-humanPPARalpha-LBD” for “GR-GAL4-humanPPARdelta-LBD”, “weak” for “little”, “stimulate the” for “stimulate”
Construction of the PPARalpha Reporter Cell Line
The PPARalpha reporter cell line was prepared in two stages. Firstly, the luciferase reporter element was constructed and stably transfected into HEK cells. For this purpose, five binding sites of the yeast transcription factor GAL4 (Accession #AF264724) were cloned in 5′-upstream of a 68 bp-long minimal MMTV promoter (Accession #V01175). The minimal MMTV promoter section contains a […] and a TATA element in order to enable efficient transcription by RNA polymerase II. The cloning and sequencing of the GAL4-MMTV construct took place in analogy to the description of Sambrook J. et al. (Molecular cloning, Cold Spring Harbor Laboratory Press, 1989). Then the complete Photinus pyralis gene (Accession #15077) was cloned in 3′-downstream of the GAL4-MMTV element. After sequencing, the luciferase reporter element consisting of five GAL4 binding sites, MMTV promoter and luciferase gene was recloned into a plasmid which confers zeocin resistance in order to obtain the plasmid pdeltaM-GAL4-Luc-Zeo. This vector was transfected into HEK cells in accordance with the statements in Ausubel, F. M. et al. (Current protocols in molecular biology, Vol. 1-3, John Wiley & Sons, Inc., 1995).
In a second step, the PPARalpha fusion protein (GR-GAL4-humanPPARalpha-LBD was introduced into the stable cell clone described. For this purpose, initially the cDNA coding for the N-terminal 76 amino acids of the glucocorticoid receptor (Accession #P04150) was linked to the cDNA section coding for amino acids 1-147 of the yeast transcription factor GAL4 (Accession #P04386). The cDNA of the ligand-binding domain of the human PPARalpha receptor (amino acids S167-Y468; Accession #S74349) was cloned in at the 3′-end of this GR-GAL4 construct. The fusion construct prepared in this way (GR-GAL4-humanPPARalpha-LBD) was recloned into the plasmid pcDNA3 (Invitrogen) in order to enable constitutive expression therein by the cytomegalovirus promoter. This plasmid was linearized with a restriction endonuclease and stably transfected into the previously described cell clone containing the luciferase reporter element. The finished PPARalpha reporter cell line which contains a luciferase reporter element and constitutively expresses the PPARalpha fusion protein (GR-GAL4-human PPARalpha-LBD) was isolated by selection with zeocin (0.5 mg/ml) and G418 (0.5 mg/ml).
The activity of PPARalpha agonists is determined in a 3-day assay, which is described below: […]

Row | SMILES | pEC50 (human PPARdelta) | pEC50 (human PPARalpha)
1 | COc1cc(OCc2sc(-c3ccc(C(F)(F)F)cc3)nc2CN2CCC(C(F)(F)F)C2)ccc1-c1noc(=O)[nH]1 (racemic) [Example 9, 3-{2-Methoxy-4-[2-(4-trifluoromethyl-phenyl)-4-(3-trifluoromethyl-pyrrolidin-1-ylmethyl)thiazol-5-ylmethoxy]-phenyl}-4H-[1,2,4]oxadiazol-5-one] | 7.25 | 6.14
2 | COc1cc(OCc2sc(-c3ccc(C(F)(F)F)cc3)nc2CN2CCC(C(F)(F)F)CC2)ccc1-c1noc(=O)[nH]1 [Example 1, 3-{2-Methoxy-4-[2-(4-trifluoromethyl-phenyl)-4-(4-trifluoromethyl-piperidin-1-ylmethyl)-thiazol-5-ylmethoxy]-phenyl}-4H-[1,2,4]oxadiazol-5-one] | 7.25 | 6.08
3 | COc1cc(OCc2sc(-c3ccc(C(F)(F)F)cc3)nc2CNC2CC2)ccc1-c1noc(=O)[nH]1 [Example 15, 3-{4-[4-Cyclopropylaminomethyl-2-(4-trifluoromethyl-phenyl)-thiazol-5-ylmethoxy]-2-methoxy-phenyl}-4H-[1,2,4]oxadiazol-5-one] | 6.82 | < 5.00
4 | CN(CCO)Cc1nc(-c2ccc(C(F)(F)F)cc2)sc1COc1ccc(-c2noc(=O)[nH]2)c(F)c1 [Example 19, 3-{2-Fluoro-4-[4-{[(2-hydroxy-ethyl)-methyl-amino]-methyl}-2-(4-trifluoromethyl-phenyl)-thiazol-5-ylmethoxy]-phenyl}-4H-[1,2,4]oxadiazol-5-one] | 6.77 | 5.92
5 | CC(=O)OCc1nc(-c2ccc(C(F)(F)F)cc2)sc1COc1ccc(-c2noc(=O)[nH]2)c(F)c1 [Example 33, Acetic acid 5-[3-fluoro-4-(5-oxo-4,5-dihydro-[1,2,4]oxadiazol-3-yl)-phenoxymethyl]-2-(4-trifluoromethyl-phenyl)-thiazol-4-ylmethyl ester] | 6.52 | 5.85
6 | Cc1cc(OCc2sc(-c3ccc(C(F)(F)F)cc3)nc2CNCCN2CCOCC2)ccc1-c1noc(=O)[nH]1 [Example 51, 3-{2-Methyl-4-[4-[(2-morpholin-4-yl-ethylamino)-methyl]-2-(4-trifluoromethyl-phenyl)-thiazol-5-ylmethoxy]-phenyl}-4H-[1,2,4]oxadiazol-5-one] | 6.64 | 5.92
7 | COCc1nc(/C=C/c2ccc(OC)cc2)oc1COc1ccc(-c2noc(=O)[nH]2)c(Cl)c1 [Example 55, 3-(2-Chloro-4-[4-methoxymethyl-2-[2-(4-methoxy-phenyl)-vinyl]-oxazol-5-ylmethoxy]-phenyl)-4H-[1,2,4]oxadiazol-5-one] | 8.52 | 6.50

The remaining lines, values ahead:

Row | pEC50 (human PPARdelta) | pEC50 (human PPARalpha) | SMILES
8 | 6.45 | 5.66 | Cc1nc(COCc2ccccc2)oc1COc1ccc(-c2noc(=O)[nH]2)c(Cl)c1 [Example 56, 3-[4-(2-Benzyloxymethyl-4-methyl-oxazol-5-ylmethoxy)-2-chloro-phenyl]-4H-[1,2,4]oxadiazol-5-one]
9 | 6.18 | 5.92 | COc1ccc(-c2nc(COc3ccc(-c4noc(=O)[nH]4)c(C)c3)c(CN3CCOCC3)o2)cc1 [Example 68, 3-{4-[2-(4-Methoxy-phenyl)-5-morpholin-4-ylmethyl-oxazol-4-ylmethoxy]-2-methyl-phenyl}-4H-[1,2,4]oxadiazol-5-one]
10 | 8.52 | 6.28 | COCCN(CCOC)Cc1nc(-c2ccc(C(F)(F)F)cc2)sc1COc1ccc(-c2noc(=O)[nH]2)c(Cl)c1 [Example 77, 3-{4-[4-{[Bis-(2-methoxy-ethyl)-amino]-methyl}-2-(4-trifluoromethyl-phenyl)-thiazol-5-ylmethoxy]-2-chloro-phenyl}-4H-[1,2,4]oxadiazol-5-one]
11 | 7.92 | 6.40 | O=c1[nH]c(-c2ccc(OCc3sc(-c4ccc(C(F)(F)F)cc4)nc3COCCC3CCCCC3)cc2Cl)no1 [Example 83, 3-{2-Chloro-4-[4-(2-cyclohexyl-ethoxymethyl)-2-(4-trifluoromethyl-phenyl)-thiazol-5-ylmethoxy]-phenyl}-4H-[1,2,4]oxadiazol-5-one]
12 | 6.82 | 5.58 | COc1cc(OCc2sc(-c3ccc(C(F)(F)F)cc3)nc2CSC)ccc1-c1noc(=O)[nH]1 [Example 89, 3-{2-Methoxy-4-[4-methylsulfanylmethyl-2-(4-trifluoromethyl-phenyl)-thiazol-5-ylmethoxy]-phenyl}-4H-1,2,4-oxadiazol-5-one]
13 | 7.74 | 6.18 | O=c1[nH]c(-c2ccc(OCc3sc(-c4ccc(C(F)(F)F)cc4)nc3CN3CCC(C(F)(F)F)CC3)cc2OC(F)F)no1 [Example 94, 3-{2-Difluoromethoxy-4-[2-(4-trifluoromethyl-phenyl)-4-(4-trifluoromethyl-piperidin-1-ylmethyl)-thiazol-5-ylmethoxy]-phenyl}-4H-1,2,4-oxadiazol-5-one]
